Biological target: T1, BiXyl43A (Bacteroides intestinalis, UniProt B3CES2)
T1 construct: gene BACINT_04203; GH43 module without signal peptide; N-terminal 6His tag (pET-46 Ek/LIC), E. coli BL21-CodonPlus(DE3)-RIL; IMAC and size exclusion
T1 sequence (B3CES2 1-325): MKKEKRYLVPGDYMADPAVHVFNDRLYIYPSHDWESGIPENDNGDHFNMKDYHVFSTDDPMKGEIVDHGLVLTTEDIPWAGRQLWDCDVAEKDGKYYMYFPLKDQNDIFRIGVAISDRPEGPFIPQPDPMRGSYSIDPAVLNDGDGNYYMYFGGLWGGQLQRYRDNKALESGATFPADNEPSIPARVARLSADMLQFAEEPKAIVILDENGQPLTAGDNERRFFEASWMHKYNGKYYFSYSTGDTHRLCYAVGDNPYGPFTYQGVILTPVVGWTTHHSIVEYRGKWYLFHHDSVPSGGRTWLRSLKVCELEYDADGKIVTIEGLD
Assay: HPAEC-PAD of hydrolysis products
Format: biochemical
Conditions: pH […] sodium phosphate, […] NaCl, […] °C, […] min; […] substrate, […] enzyme

Structure (SMILES)	HPAEC-PAD of hydrolysis products
OC1OC[C@@H](O[C@@H]2OC[C@@H](O)[C@H](O)[C@H]2O)[C@H](O)[C@H]1O (some centres unmarked) [X2, xylobiose]	xylo-oligosaccharides ranging from xylobiose to xylohexaose led to cleavage or hydrolysis to their unit sugar
OC1OC[C@@H](O[C@@H]2OC[C@@H](O[C@@H]3OC[C@@H](O)[C@H](O)[C@H]3O)[C@H](O)[C@H]2O)[C@H](O)[C@H]1O (some centres unmarked) [X3, xylotriose]	BiXyl43A against xylo-oligosaccharides (xylobiose, X2; xylotriose, X3; xylotetraose, X4

Source: paper PMC5041131, “Bacteroides intestinalis DSM 17393, a member of the human colonic microbiome, upregulates multiple endoxylanases during growth on xylan” (Scientific Reports, 2016)
